According to patent US4738954A, “Novel N^6 -substituted-5'-oxidized adenosine analogs” (Warner-Lambert Company, priority 1985, dated 1988):
pIC50: −log10 of the molar value.

Assays:
[1] = tested on: platelets (ADP-induced aggregation); experiment: Antithrombocyte aggregation test in vitro (ATA-8), ADP-induced, platelet rich plasma; type: cell-based, human (Community Research Clinic volunteers); settings: Homo sapiens
Protocol: (§1) ANTITHROMBOCYTE AGGREGATION TEST-IN VITRO (ATA-8)
Source and Preparation of Platelet Suspensions
Blood is collected from Community Research Clinic volunteers who have not ingested aspirin or other non-steroidol antiinflammatory drugs within the preceeding two weeks and have not eaten within the nine hours before blood draw. Blood is taken in 4.5 ml portions in Vacutainer No. 6462S silicone-coated tubes or equivalent containing 0.5 ml of 3.8% trisodium citrate. Usually six or eight portions of 4.5 ml are drawn from each volunteer. The blood collected from three or four volunteers is pooled prior to centrifugation. The pooled blood is put in 50 ml polyethylene tubes and centrifuged at 80×g (ca 600 rpm) for 20 min in an International Model K centrifuge at room temperature. […] The platelet count of the PRP is determined with a Coulter Thromobocounter. […]
Platelet-rich plasma adjusted to 250,000 platelets per microliter is distributed in 0.36 ml aliquots into silicone-coated cuvettes of 0.312 inch diameter. […] Extent of aggregation, using ADP stimulus, or rate of aggregation, using collagen stimulus, is determined using the Payton Scientific Dual Channel Aggregation Module, Model 300B. Appropriate concentrations of ADP or collagen are determined by an initial brief titration. […]

[2] = tested on: platelets (ADP-induced aggregation); experiment: Antithrombocyte aggregation test in vitro (ATA-8), ADP-induced, whole blood; type: cell-based, human (Community Research Clinic volunteers); settings: Homo sapiens, Platelet
Protocol: as §1
Blood is collected from Community Research Clinic volunteers who have not ingested aspirin or other non-steroidol antiinflammatory drugs within the preceeding two weeks and have not eaten within the nine hours before blood draw. Blood is taken in 4.5 ml portions in Vacutainer No. 6462S silicone-coated tubes or equivalent containing 0.5 ml of 3.8% trisodium citrate. Usually six or eight portions of 4.5 ml are drawn from each volunteer. […] The pooled blood is put in 50 ml polyethylene tubes and centrifuged at 80×g (ca 600 rpm) for 20 min in an International Model K centrifuge at room temperature. […]
Addition of drug solution or saline (0.02 ml) is followed in 5 min by addition of aggregating agent (ADP or collagen suspension, 0.02 ml). Extent of aggregation, using ADP stimulus, or rate of aggregation, using collagen stimulus, is determined using the Payton Scientific Dual Channel Aggregation Module, Model 300B. Appropriate concentrations of ADP or collagen are determined by an initial brief titration.
The height in millimeters of aggregation curves for control aggregations (no drug addition, saline only) are compared with the heights of curves obtained after drug addition at various appropriate concentrations. Heights after drug addition are finally expressed as "percent of control" values. […]

pIC50 [1]: 6.22
pIC50 [2]: 9.15
SMILES: CCNC(=O)[C@H]1O[C@@H](n2cnc3c(N[C@H](C)Cc4ccccc4)ncnc32)[C@H](O)[C@@H]1O [Example 1, (R)-N-6-[(2-phenyl-1-methyl)ethyl]-adenosine-5'-ethylcarboxamide]
